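1) Cells in 96-well plates. 2) Compound, 48 h, 5 concentrations. 3) Linear interpolation between surrounding doses. 4) Unreached endpoint = highest concentration. GI50 = concentration required for 50% inhibition of growth. Definition used: TGI = concentration required for complete inhibition of growth.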
Legend:
Assay in all cases: NCI anticancer screen, dose series, 48 h
NCI-H23 lung = tested on: NCI-H23 lung
COLO 205 colon = tested on: COLO 205 colon
MDA-MB-435 = tested on: MDA-MB-435
HS 578T breast = tested on: HS 578T breast
K-562 leukemia = tested on: K-562 leukemia
NCI/ADR-RES ovarian = tested on: NCI/ADR-RES ovarian
OVCAR-8 ovarian = tested on: OVCAR-8 ovarian
HOP-92 NSCLC = tested on: HOP-92 NSCLC
SK-MEL-5 melanoma = tested on: SK-MEL-5 melanoma
TK-10 renal = tested on: TK-10 renal
SW-620 colon = tested on: SW-620 colon
MOLT-4 leukemia = tested on: MOLT-4 leukemia
RPMI-8226 leukemia = tested on: RPMI-8226 leukemia
SK-OV-3 ovarian = tested on: SK-OV-3 ovarian
SF-268 CNS = tested on: SF-268 CNS
ACHN renal = tested on: ACHN renal
T-47D breast = tested on: T-47D breast
IGROV1 ovarian = tested on: IGROV1 ovarian
CCRF-CEM leukemia = tested on: CCRF-CEM leukemia
HCT-15 colon = tested on: HCT-15 colon
UACC-62 melanoma = tested on: UACC-62 melanoma
OVCAR-5 ovarian = tested on: OVCAR-5 ovarian
KM12 colon = tested on: KM12 colon
LOX IMVI melanoma = tested on: LOX IMVI melanoma
MDA-MB-231 breast = tested on: MDA-MB-231 breast
HL-60(TB) leukemia = tested on: HL-60(TB) leukemia
OVCAR-3 ovarian = tested on: OVCAR-3 ovarian
HT29 colon = tested on: HT29 colon
SK-MEL-2 melanoma = tested on: SK-MEL-2 melanoma
M14 melanoma = tested on: M14 melanoma
DU-145 prostate = tested on: DU-145 prostate
HOP-62 NSCLC = tested on: HOP-62 NSCLC
NCI-H460 lung = tested on: NCI-H460 lung
A498 renal = tested on: A498 renal
HCC-2998 colon = tested on: HCC-2998 colon
SN12C renal = tested on: SN12C renal
EKVX NSCLC = tested on: EKVX NSCLC
A549 NSCLC = tested on: A549 NSCLC
MCF7 breast = tested on: MCF7 breast
SF-539 CNS = tested on: SF-539 CNS
UACC-257 melanoma = tested on: UACC-257 melanoma
SNB-19 CNS = tested on: SNB-19 CNS
PC-3 prostate = tested on: PC-3 prostate
UO-31 renal = tested on: UO-31 renal
HCT-116 colon = tested on: HCT-116 colon
SNB-75 CNS = tested on: SNB-75 CNS
MALME-3M melanoma = tested on: MALME-3M melanoma
NCI-H522 lung = tested on: NCI-H522 lung
RXF 393 renal = tested on: RXF 393 renal
SF-295 CNS = tested on: SF-295 CNS
CAKI-1 renal = tested on: CAKI-1 renal
SK-MEL-28 melanoma = tested on: SK-MEL-28 melanoma
NCI-H226 lung = tested on: NCI-H226 lung
U251 CNS = tested on: U251 CNS
OVCAR-4 ovarian = tested on: OVCAR-4 ovarian
BT-549 breast = tested on: BT-549 breast
786-0 renal = tested on: 786-0 renal

Question: O=C1C=CC2(O)OC/C(=C\c3ccccc3)C(O)=C2C1=O (centres undefined) was tested. Which GI50 (NCI-H23 lung) did it give?
Answer: 1650 nM

Question: What about the TGI (NCI-H23 lung) of the same molecule?
Answer: 3380 nM

Question: And the GI50 (COLO 205 colon)?
Answer: 2630 nM

Question: What about the TGI (COLO 205 colon) of the same molecule?
Answer: 6330 nM

Question: What about the GI50 (MDA-MB-435) of the same molecule?
Answer: 1950 nM

Question: What about the TGI (MDA-MB-435) of the same molecule?
Answer: 4740 nM

Question: And the GI50 (HS 578T breast)?
Answer: 259 nM

Question: What about the TGI (HS 578T breast) of the same molecule?
Answer: 3000 nM

Question: What about the GI50 (K-562 leukemia) of the same molecule?
Answer: 476 nM

Question: And the TGI (K-562 leukemia)?
Answer: > 100000 nM

Question: What about the GI50 (NCI/ADR-RES ovarian) of the same molecule?
Answer: 2570 nM

Question: And the TGI (NCI/ADR-RES ovarian)?
Answer: 12700 nM

Question: And the GI50 (OVCAR-8 ovarian)?
Answer: 2710 nM

Question: What about the TGI (OVCAR-8 ovarian) of the same molecule?
Answer: 10300 nM

Question: What about the GI50 (HOP-92 NSCLC) of the same molecule?
Answer: 1270 nM

Question: And the TGI (HOP-92 NSCLC)?
Answer: 3590 nM

Question: And the GI50 (SK-MEL-5 melanoma)?
Answer: 1570 nM

Question: What about the TGI (SK-MEL-5 melanoma) of the same molecule?
Answer: 2980 nM

Question: What about the GI50 (TK-10 renal) of the same molecule?
Answer: 2990 nM

Question: What about the TGI (TK-10 renal) of the same molecule?
Answer: 7840 nM

Question: What about the GI50 (SW-620 colon) of the same molecule?
Answer: 1600 nM

Question: And the TGI (SW-620 colon)?
Answer: 3680 nM

Question: And the GI50 (MOLT-4 leukemia)?
Answer: 791 nM

Question: And the TGI (MOLT-4 leukemia)?
Answer: 14400 nM

Question: And the GI50 (RPMI-8226 leukemia)?
Answer: 285 nM

Question: And the TGI (RPMI-8226 leukemia)?
Answer: 838 nM

Question: What about the GI50 (SK-OV-3 ovarian) of the same molecule?
Answer: 15200 nM

Question: What about the TGI (SK-OV-3 ovarian) of the same molecule?
Answer: > 100000 nM

Question: What about the GI50 (SF-268 CNS) of the same molecule?
Answer: 2100 nM

Question: What about the TGI (SF-268 CNS) of the same molecule?
Answer: 7080 nM

Question: And the GI50 (ACHN renal)?
Answer: 1530 nM

Question: And the TGI (ACHN renal)?
Answer: 2920 nM

Question: And the GI50 (T-47D breast)?
Answer: 2470 nM

Question: And the TGI (T-47D breast)?
Answer: 10600 nM

Question: And the GI50 (IGROV1 ovarian)?
Answer: 1830 nM

Question: What about the TGI (IGROV1 ovarian) of the same molecule?
Answer: 9700 nM

Question: And the GI50 (CCRF-CEM leukemia)?
Answer: 534 nM

Question: And the TGI (CCRF-CEM leukemia)?
Answer: 25900 nM

Question: What about the GI50 (HCT-15 colon) of the same molecule?
Answer: 868 nM

Question: And the TGI (HCT-15 colon)?
Answer: 3380 nM

Question: And the GI50 (UACC-62 melanoma)?
Answer: 1510 nM

Question: And the TGI (UACC-62 melanoma)?
Answer: 3760 nM

Question: What about the GI50 (OVCAR-5 ovarian) of the same molecule?
Answer: 2170 nM

Question: And the TGI (OVCAR-5 ovarian)?
Answer: 4500 nM

Question: What about the GI50 (KM12 colon) of the same molecule?
Answer: 1400 nM

Question: What about the TGI (KM12 colon) of the same molecule?
Answer: 3020 nM

Question: What about the GI50 (LOX IMVI melanoma) of the same molecule?
Answer: 1400 nM

Question: What about the TGI (LOX IMVI melanoma) of the same molecule?
Answer: 2760 nM

Question: And the GI50 (MDA-MB-231 breast)?
Answer: 648 nM

Question: What about the TGI (MDA-MB-231 breast) of the same molecule?
Answer: 3510 nM

Question: And the GI50 (HL-60(TB) leukemia)?
Answer: 517 nM

Question: And the TGI (HL-60(TB) leukemia)?
Answer: 7760 nM

Question: And the GI50 (OVCAR-3 ovarian)?
Answer: 1140 nM

Question: What about the TGI (OVCAR-3 ovarian) of the same molecule?
Answer: 3230 nM

Question: And the GI50 (HT29 colon)?
Answer: 3620 nM

Question: What about the TGI (HT29 colon) of the same molecule?
Answer: 11800 nM

Question: And the GI50 (SK-MEL-2 melanoma)?
Answer: 2020 nM

Question: What about the TGI (SK-MEL-2 melanoma) of the same molecule?
Answer: 5770 nM

Question: What about the GI50 (M14 melanoma) of the same molecule?
Answer: 2950 nM

Question: What about the TGI (M14 melanoma) of the same molecule?
Answer: 11700 nM

Question: And the GI50 (DU-145 prostate)?
Answer: 2510 nM

Question: And the TGI (DU-145 prostate)?
Answer: 9360 nM

Question: And the GI50 (HOP-62 NSCLC)?
Answer: 2890 nM

Question: What about the TGI (HOP-62 NSCLC) of the same molecule?
Answer: 9320 nM

Question: And the GI50 (NCI-H460 lung)?
Answer: 1980 nM

Question: And the TGI (NCI-H460 lung)?
Answer: 4320 nM

Question: What about the GI50 (A498 renal) of the same molecule?
Answer: 10800 nM

Question: What about the TGI (A498 renal) of the same molecule?
Answer: 22800 nM

Question: And the GI50 (HCC-2998 colon)?
Answer: 1820 nM

Question: What about the TGI (HCC-2998 colon) of the same molecule?
Answer: 3320 nM

Question: What about the GI50 (SN12C renal) of the same molecule?
Answer: 1210 nM

Question: And the TGI (SN12C renal)?
Answer: 8380 nM

Question: And the GI50 (EKVX NSCLC)?
Answer: 1900 nM

Question: And the TGI (EKVX NSCLC)?
Answer: 5430 nM

Question: And the GI50 (A549 NSCLC)?
Answer: 2520 nM

Question: What about the TGI (A549 NSCLC) of the same molecule?
Answer: 6880 nM

Question: And the GI50 (MCF7 breast)?
Answer: 1220 nM

Question: And the TGI (MCF7 breast)?
Answer: 10200 nM

Question: And the GI50 (SF-539 CNS)?
Answer: 1240 nM

Question: And the TGI (SF-539 CNS)?
Answer: 2870 nM

Question: And the GI50 (UACC-257 melanoma)?
Answer: 1820 nM

Question: And the TGI (UACC-257 melanoma)?
Answer: 4500 nM

Question: And the GI50 (SNB-19 CNS)?
Answer: 2650 nM

Question: And the TGI (SNB-19 CNS)?
Answer: 9700 nM

Question: And the GI50 (PC-3 prostate)?
Answer: 1350 nM

Question: What about the TGI (PC-3 prostate) of the same molecule?
Answer: 4190 nM

Question: What about the GI50 (UO-31 renal) of the same molecule?
Answer: 722 nM

Question: What about the TGI (UO-31 renal) of the same molecule?
Answer: 2030 nM

Question: What about the GI50 (HCT-116 colon) of the same molecule?
Answer: 1880 nM

Question: And the TGI (HCT-116 colon)?
Answer: 4080 nM

Question: What about the GI50 (SNB-75 CNS) of the same molecule?
Answer: 1950 nM

Question: What about the TGI (SNB-75 CNS) of the same molecule?
Answer: 9680 nM

Question: What about the GI50 (MALME-3M melanoma) of the same molecule?
Answer: 1510 nM

Question: What about the TGI (MALME-3M melanoma) of the same molecule?
Answer: 5150 nM

Question: What about the GI50 (NCI-H522 lung) of the same molecule?
Answer: 196 nM

Question: And the TGI (NCI-H522 lung)?
Answer: 535 nM

Question: And the GI50 (RXF 393 renal)?
Answer: 1500 nM

Question: What about the TGI (RXF 393 renal) of the same molecule?
Answer: 2950 nM

Question: What about the GI50 (SF-295 CNS) of the same molecule?
Answer: 2580 nM

Question: What about the TGI (SF-295 CNS) of the same molecule?
Answer: 6320 nM

Question: And the GI50 (CAKI-1 renal)?
Answer: 1590 nM

Question: What about the TGI (CAKI-1 renal) of the same molecule?
Answer: 3200 nM

Question: And the GI50 (SK-MEL-28 melanoma)?
Answer: 2590 nM

Question: And the TGI (SK-MEL-28 melanoma)?
Answer: 6410 nM

Question: What about the GI50 (NCI-H226 lung) of the same molecule?
Answer: 3110 nM

Question: What about the TGI (NCI-H226 lung) of the same molecule?
Answer: 31400 nM

Question: What about the GI50 (U251 CNS) of the same molecule?
Answer: 1390 nM

Question: And the TGI (U251 CNS)?
Answer: 3030 nM

Question: What about the GI50 (OVCAR-4 ovarian) of the same molecule?
Answer: 2370 nM

Question: And the TGI (OVCAR-4 ovarian)?
Answer: 8870 nM

Question: What about the GI50 (BT-549 breast) of the same molecule?
Answer: 2020 nM

Question: What about the TGI (BT-549 breast) of the same molecule?
Answer: 6980 nM

Question: And the GI50 (786-0 renal)?
Answer: 1300 nM

Question: What about the TGI (786-0 renal) of the same molecule?
Answer: 3040 nM
